The text below walks through data of ChEMBL document CHEMBL1130324, “Exceptionally potent antispermatogenic compounds from 8-halogenation of (4aRS,5SR,9bRS)-hexahydroindeno-[1,2-c]pyridines” (1997).

Common to all, as to assay type: functional
The test system of test [1] is Mus musculus. As to the kind of experiment: Spermatogenic index (percent change from vehicle control) was calculated in Adult Male Swiss Mice at 20 (umol/kg) dose.
In test [2] the test system is Mus musculus. Nature of the test: Spermatogenic index (percent change from vehicle control) was calculated in Adult Male Swiss Mice at 2 (umol/kg) dose.
Test [3] deals with Mus musculus. As to the kind of experiment: Spermatogenic index (percent change from vehicle control) was calculated in Adult Male Swiss Mice at 6 (umol/kg) dose.
The test system of test [4] is Mus musculus. Nature of the test: Spermatogenic index (percent change from vehicle control) was calculated in Adult Male Swiss Mice at 7 (umol/kg) dose.
In test [5] the test system is Mus musculus. Nature of the test: Spermatogenic index (percent change from vehicle control) was calculated in Adult Male Swiss Mice at 25 (umol/kg) dose.
In test [6] the test system is Mus musculus. Nature of the test: Spermatogenic index (percent change from vehicle control) was calculated in Adult Male Swiss Mice at 75 (umol/kg) dose.
The subject of test [7] is Mus musculus. As to the kind of experiment: Spermatogenic index (percent change from vehicle control) was calculated in Adult Male Swiss Mice at 8 (umol/kg) dose.
The subject of test [8] is Mus musculus. As to the kind of experiment: Spermatogenic index (percent change from vehicle control) was calculated in Adult Male Swiss Mice at 3 (umol/kg) dose.
The subject of test [9] is Mus musculus. Nature of the test: Spermatogenic index (percent change from vehicle control) was calculated in Adult Male Swiss Mice at 62 (umol/kg) dose.
The subject of test [10] is Mus musculus. As to the kind of experiment: Spermatogenic index (percent change from vehicle control) was calculated in Adult Male Swiss Mice at 21 (umol/kg) dose.
Test [11] has as its system Mus musculus. As to the kind of experiment: Spermatogenic index (percent change from vehicle control) was calculated in Adult Male Swiss Mice at 26 (umol/kg) dose.
Test [12] concerns Mus musculus. Nature of the test: Spermatogenic index (percent change from vehicle control) was calculated in Adult Male Swiss Mice 79 (umol/kg) dose.
Test [13] concerns Mus musculus. Nature of the test: Spermatogenic index (percent change from vehicle control) was calculated in Adult Male Swiss Mice at 0.6 (umol/kg) dose.
The test system of test [14] is Mus musculus. Nature of the test: Spermatogenic index (percent change from vehicle control) was calculated in Adult Male Swiss Mice at 19 (umol/kg) dose.

Turning to `CCN1CC[C@H]2[C@H](c3ccc(C(=O)O)cc3)c3cc(C)c(I)cc3[C@H]2C1`, the SI in the test with Mus musculus [1] is recorded as -76%; in the test on Mus musculus [2], -67%; in the test with Mus musculus [3], -66%.
`CCN1CC[C@H]2[C@H](c3ccc(C(=O)O)cc3)c3cc(C)c(Cl)cc3[C@H]2C1`: the SI in the test with Mus musculus [2] is recorded as -55%; in the test on Mus musculus [4], -66%; in the test on Mus musculus [5] it was -72%.
As for `CCN1CC[C@H]2[C@H](c3ccc(C(=O)OC)cc3)c3cc(C)ccc3[C@H]2C1`, the SI was -64% in the test with Mus musculus [6], -2% in the test on Mus musculus [7], -33% in the test with Mus musculus [5] and 3% in the test on Mus musculus [8].
Turning to `CCN1CC[C@H]2[C@H](c3ccc(C(=O)O)cc3)c3cc(C)c(Br)cc3[C@H]2C1`, the SI is on record as -72% with Mus musculus [9], -71% with Mus musculus [10] and -69% in the test on Mus musculus [3].
Take `CCN1CC[C@H]2[C@H](c3ccc(C(=O)O)cc3)c3cc(C)ccc3[C@H]2C1`: the SI with Mus musculus [11] is -24%; in the test on Mus musculus [12], -52%.
For `CCN1CC[C@H]2[C@H](c3ccc(C(=O)OC)cc3)c3cc(C)c(I)cc3[C@H]2C1` (stereo in doubt; 2b), the SI was -74% in the test with Mus musculus [1], -57% in the test with Mus musculus [2] and -69% with Mus musculus [3].
Regarding `CCN1CC[C@H]2[C@H](c3ccc(C(=O)OC)cc3)c3cc(C)c(I)cc3[C@H]2C1` (stereo in doubt; (l)-2b), the SI in the test with Mus musculus [13] is on record as -34%; in the test with Mus musculus [14], -72%; in the test on Mus musculus [2] it was -66%; in the test with Mus musculus [3] it was -71%.
